# Like-named read-outs stand apart in the source and are kept apart here.
# Columns and labels:
# EGFR wild type = biological target: T1, EGFR wild type (Homo sapiens, UniProt P00533); assay: Inhibition of EGFR wild type biochemical enzymatic activity (HTRF); settings: 1 mM ATP
# T1 construct: purchased Carna Bio
# Protocol: (§1) Biological Example 1: Inhibition of EGFR WT and Mutant Biochemical Enzymatic Activity
# (§2) The inhibition potency of compounds against these enzymes was assessed using Homogenous Time Resolved Fluorescence approach (HTRF, CisBio. Cat No. 62TKOPEJ).
# (§3) Inhibitory effects of the compounds were determined by measuring the enzymatic activity of EGFR enzyme phosphorylates 1 μM TK Substrate-biotin in the presence of 1 mM adenosine-5′-triphosphate (ATP) and varying concentrations of the test compound. The enzyme reaction buffer contains 5 mM MgCl2, 1 mM MnC12, 0.01% CHAPS, 1 mM dithiothreitol (DTT), 0.5% dimethylsulfoxide (DMSO), and 1× supplemented enzymatic buffer. The WT and mutant EGFR enzymes (SignalChem) were added to plates containing inhibitors, followed by activation of the kinase reaction by addition of ATP and peptide substrates. After incubation for 1 h at room temperature, the reaction was stopped by the addition of the detection reagent mix containing EDTA. The fluorescence was measured at 615 nm and 665 nm, respectively with excitation wavelength at 320 nm. The calculated signal ratio of 665 nm/615 nm is proportional to the kinase activity. The concentration of compound producing 50% inhibition of the respective kinase (IC50) was calculated using four-parameter logistic fit with XL-FIT.
# EGFR L858R = biological target: T2, EGFR L858R (Homo sapiens, UniProt P00533, L858R); assay: Inhibition of EGFR L858R biochemical enzymatic activity (HTRF); settings: 1 mM ATP
# T2 construct: purchased Carna Bio
# T2 sequence (P00533 25-1210 L858R): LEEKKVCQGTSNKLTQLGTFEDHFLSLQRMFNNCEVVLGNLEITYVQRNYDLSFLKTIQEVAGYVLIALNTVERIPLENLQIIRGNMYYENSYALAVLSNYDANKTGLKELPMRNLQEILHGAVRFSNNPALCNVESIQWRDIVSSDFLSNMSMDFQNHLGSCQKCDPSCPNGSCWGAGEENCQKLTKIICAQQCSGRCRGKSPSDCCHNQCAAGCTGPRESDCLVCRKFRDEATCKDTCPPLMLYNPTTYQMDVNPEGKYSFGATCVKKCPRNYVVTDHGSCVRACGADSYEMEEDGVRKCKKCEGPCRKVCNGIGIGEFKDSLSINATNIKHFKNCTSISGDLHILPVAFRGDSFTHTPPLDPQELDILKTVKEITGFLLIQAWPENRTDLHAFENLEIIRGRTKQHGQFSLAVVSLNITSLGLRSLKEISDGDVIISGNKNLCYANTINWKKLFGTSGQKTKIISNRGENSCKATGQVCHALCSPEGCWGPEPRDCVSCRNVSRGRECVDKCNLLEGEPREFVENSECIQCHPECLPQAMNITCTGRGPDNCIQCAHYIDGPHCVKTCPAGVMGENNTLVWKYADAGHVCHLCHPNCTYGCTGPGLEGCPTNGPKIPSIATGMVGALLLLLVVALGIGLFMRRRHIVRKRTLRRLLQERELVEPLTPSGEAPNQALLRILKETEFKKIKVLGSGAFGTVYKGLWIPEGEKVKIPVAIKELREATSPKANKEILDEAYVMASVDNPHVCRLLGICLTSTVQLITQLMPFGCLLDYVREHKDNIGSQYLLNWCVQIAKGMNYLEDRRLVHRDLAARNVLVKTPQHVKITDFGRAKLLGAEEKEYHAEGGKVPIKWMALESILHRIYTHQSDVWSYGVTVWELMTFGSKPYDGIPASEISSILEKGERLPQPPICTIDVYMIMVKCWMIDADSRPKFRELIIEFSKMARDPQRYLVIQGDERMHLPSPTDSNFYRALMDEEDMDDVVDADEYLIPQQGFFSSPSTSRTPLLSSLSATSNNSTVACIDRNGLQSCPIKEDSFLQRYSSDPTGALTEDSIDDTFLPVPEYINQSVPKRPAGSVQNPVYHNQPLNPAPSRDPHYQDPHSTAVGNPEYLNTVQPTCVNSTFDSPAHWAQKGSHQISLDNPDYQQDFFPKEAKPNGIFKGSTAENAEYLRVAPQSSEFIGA
# Protocol: as §1, §2, §3
# EGFR L858R/T790M = biological target: T3, EGFR L858R/T790M (Homo sapiens, UniProt P00533, L858R/T790M); assay: Inhibition of EGFR L858R/T790M biochemical enzymatic activity (HTRF); settings: 1 mM ATP
# T3 construct: purchased Carna Bio
# Protocol: as §1, §2, §3
# EGFR Exon19Del = biological target: T4, EGFR Exon19Del (Homo sapiens, UniProt P00533, DEL746-750); assay: Inhibition of EGFR Exon19Del biochemical enzymatic activity (HTRF); settings: read-out: IC50 @Del19
# T4 construct: purchased Carna Bio
# Protocol: as §1, §2, §3
# EGFR Exon19Del/T790M = biological target: T5, EGFR Exon19Del/T790M (Homo sapiens, UniProt P00533, DEL746-750/T790M); assay: Inhibition of EGFR Exon19Del/T790M biochemical enzymatic activity (HTRF); settings: 1 mM ATP
# T5 construct: purchased Carna Bio
# T5 sequence (P00533 with tags, fused parts or gaps DEL746-750/T790M limits assumed): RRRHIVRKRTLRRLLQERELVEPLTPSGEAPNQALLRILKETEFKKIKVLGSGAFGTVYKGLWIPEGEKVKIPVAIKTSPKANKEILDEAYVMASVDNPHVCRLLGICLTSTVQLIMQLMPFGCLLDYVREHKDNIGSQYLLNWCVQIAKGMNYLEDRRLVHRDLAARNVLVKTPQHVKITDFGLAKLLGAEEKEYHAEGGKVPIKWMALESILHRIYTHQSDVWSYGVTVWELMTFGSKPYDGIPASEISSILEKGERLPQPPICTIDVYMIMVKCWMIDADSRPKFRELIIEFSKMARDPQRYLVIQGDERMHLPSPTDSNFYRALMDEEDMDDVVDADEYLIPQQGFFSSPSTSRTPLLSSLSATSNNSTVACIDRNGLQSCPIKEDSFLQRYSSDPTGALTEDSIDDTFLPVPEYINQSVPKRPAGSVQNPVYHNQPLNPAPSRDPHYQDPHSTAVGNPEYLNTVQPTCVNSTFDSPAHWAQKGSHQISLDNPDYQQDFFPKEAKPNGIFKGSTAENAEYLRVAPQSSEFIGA
# Protocol: as §1, §2, §3
# EGFR[T790M/C797S/L858R] = biological target: T6, EGFR[T790M/C797S/L858R] (Homo sapiens, UniProt P00533, C797S/L858R/T790M); assay: Inhibition of EGFR[T790M/C797S/L858R] biochemical enzymatic activity (HTRF); settings: 1 mM ATP
# T6 construct: purchased Carna Bio
# T6 sequence (P00533 25-1210 T790M/C797S/L858R): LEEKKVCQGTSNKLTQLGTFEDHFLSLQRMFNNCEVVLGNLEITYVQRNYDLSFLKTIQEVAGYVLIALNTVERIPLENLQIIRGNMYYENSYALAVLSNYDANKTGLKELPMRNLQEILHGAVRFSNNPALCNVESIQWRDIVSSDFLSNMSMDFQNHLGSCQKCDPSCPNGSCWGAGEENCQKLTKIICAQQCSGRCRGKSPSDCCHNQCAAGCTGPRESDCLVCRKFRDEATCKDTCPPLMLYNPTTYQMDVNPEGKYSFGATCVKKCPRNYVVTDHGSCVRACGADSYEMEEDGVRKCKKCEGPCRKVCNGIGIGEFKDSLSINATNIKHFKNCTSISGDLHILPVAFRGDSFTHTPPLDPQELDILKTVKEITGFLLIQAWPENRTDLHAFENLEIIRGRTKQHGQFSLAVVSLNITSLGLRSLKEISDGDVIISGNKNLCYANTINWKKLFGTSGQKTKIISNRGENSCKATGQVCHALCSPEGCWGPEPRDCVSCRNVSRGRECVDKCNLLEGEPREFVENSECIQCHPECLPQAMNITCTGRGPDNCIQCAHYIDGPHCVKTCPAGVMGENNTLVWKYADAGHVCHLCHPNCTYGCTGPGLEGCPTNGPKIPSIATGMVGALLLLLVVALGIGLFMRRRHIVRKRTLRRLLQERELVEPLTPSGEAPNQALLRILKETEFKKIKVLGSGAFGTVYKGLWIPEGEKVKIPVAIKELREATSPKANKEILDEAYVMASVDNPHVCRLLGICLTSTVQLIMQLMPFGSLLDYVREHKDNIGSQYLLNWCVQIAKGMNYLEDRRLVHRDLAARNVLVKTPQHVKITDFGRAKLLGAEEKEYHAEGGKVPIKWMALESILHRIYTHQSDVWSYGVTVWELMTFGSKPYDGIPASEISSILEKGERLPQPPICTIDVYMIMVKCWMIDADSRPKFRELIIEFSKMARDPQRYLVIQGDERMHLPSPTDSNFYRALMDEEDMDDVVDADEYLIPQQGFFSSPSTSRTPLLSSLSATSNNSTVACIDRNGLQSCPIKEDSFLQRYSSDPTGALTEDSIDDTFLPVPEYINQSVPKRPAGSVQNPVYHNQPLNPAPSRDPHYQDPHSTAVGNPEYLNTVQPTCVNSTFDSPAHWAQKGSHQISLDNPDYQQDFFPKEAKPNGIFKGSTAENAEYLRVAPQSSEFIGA
# Protocol: as §1, §2, §3
# [1] = biological target: T7, EGFR[T790M/C797S/d746-750] (Homo sapiens, UniProt P00533, C797S/DEL746-750/T790M); assay: Inhibition of EGFR[T790M/C797S/d746-750] biochemical enzymatic activity (HTRF)
# T7 construct: purchased Carna Bio
# Protocol: as §1, §2, §3
# EGFR (d746-750 C797S) = biological target: T8, EGFR (d746-750 C797S) (Homo sapiens, UniProt P00533, C797S/DEL746-750); assay: Inhibition of EGFR (d746-750 C797S) biochemical enzymatic activity (HTRF); settings: 1 mM ATP
# T8 construct: purchased signalchem
# T8 sequence (P00533 with tags, fused parts or gaps DEL746-750/C797S limits assumed): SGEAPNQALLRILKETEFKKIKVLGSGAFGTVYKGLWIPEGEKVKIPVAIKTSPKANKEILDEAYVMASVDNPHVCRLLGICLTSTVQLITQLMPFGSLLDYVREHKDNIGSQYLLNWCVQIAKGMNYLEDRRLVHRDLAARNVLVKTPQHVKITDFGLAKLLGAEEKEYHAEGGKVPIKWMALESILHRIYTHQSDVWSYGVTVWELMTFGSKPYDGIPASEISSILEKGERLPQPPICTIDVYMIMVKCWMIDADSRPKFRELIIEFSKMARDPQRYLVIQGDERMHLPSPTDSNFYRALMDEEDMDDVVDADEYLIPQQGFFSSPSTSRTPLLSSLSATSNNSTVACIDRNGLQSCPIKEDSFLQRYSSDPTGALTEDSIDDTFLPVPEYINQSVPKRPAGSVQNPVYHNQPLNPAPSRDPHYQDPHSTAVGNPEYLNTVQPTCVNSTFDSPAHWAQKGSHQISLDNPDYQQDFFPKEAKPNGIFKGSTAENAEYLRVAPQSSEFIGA
# Protocol: as §1, §2, §3
# EGFR (C797S L858R) = biological target: T9, EGFR (C797S L858R) (Homo sapiens, UniProt P00533, C797S/L858R); assay: Inhibition of EGFR (C797S L858R) biochemical enzymatic activity (HTRF); settings: 1 mM ATP
# T9 construct: purchased signalchem
# Protocol: as §1, §2, §3
# [2] = system: Ba/F3 cells expressing EGFR mutations; assay: Cell proliferation assay, Ba/F3 cells expressing EGFR mutations (CellTiter-Glo, 72 hours); assay type: cell-based
# Procedure, shortened: (§4)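 Ba/F3 cells carrying EGFR mutants (5000/well) or PC-9 cells (500/well) in RPMI1640 were dosed with compound series after overnight attachment and grown 72 h. Viability read by CellTiter-Glo, with day-0 counts subtracted; GI50 from curve fits of % proliferation versus DMSO control.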
# PC-9 = assay: Cell proliferation assay, PC-9 cells (CellTiter-Glo, 72 hours); assay type: cell-based; settings: PC9 cells
# Procedure, shortened: as §4
# [3] = EGFR WT, 1 h, room temperature, read-out: IC50 (nM) @WT
# [4] = 1 h, room temperature, read-out: IC50 (nM) @L858R
# [5] = EGFR L858R-T790M, 1 h, room temperature, read-out: IC50 (nM) @L858R-T790M
# [6] = EGFR Del19, 1 mM ATP, 1 h, room temperature
# [7] = EGFR Del19-T790M, 1 h, room temperature, read-out: IC50 (nM) @Del19-T790M
# [8] = EGFR T790M-C797S-L858R, 1 h, room temperature, read-out: IC50 (nM) @T790M- C797S - L858R
# [9] = EGFR T790M-C797S-Del19, 1 mM ATP, 1 h, room temperature, read-out: IC50 (nM) @T790M - C797S - Del19
# [10] = EGFR Del19-C797S, 1 h, room temperature, read-out: IC50 (nM) @Del19-C797S
# [11] = EGFR L858-C797S, 1 h, room temperature, read-out: IC50 (nM) @L858-C797S
# [12] = BaF3 cells, EGFR DEL19-C797S, CellTiter-Glo, read-out: DEL19-C797S/BaF3 GI50
# [13] = BaF3 cells, EGFR DEL19-T790-C797S, CellTiter-Glo, read-out: DEL19-T790-C797S/BaF3 GI50
# [14] = BaF3 cells, EGFR L858R, CellTiter-Glo, read-out: L858R/BaF3 GI50
# [15] = BaF3 cells, EGFR L858R-C797S, CellTiter-Glo, read-out: L858R-C797S/BaF3 GI50
# [16] = BaF3 cells, EGFR L858R-T790-C797S, CellTiter-Glo, read-out: L858R-T790-C797S/BaF3 GI50
# [17] = BaF3 cells, EGFR L858R-T790M, CellTiter-Glo, read-out: L858R-T790M/BaF3 GI50
# [18] = EGFR DEL19-T790M, CellTiter-Glo, read-out: DEL19-T790M GI50
# [19] = CellTiter-Glo, read-out: PC9 GI50
# T1 sequence (P00533 25-1210): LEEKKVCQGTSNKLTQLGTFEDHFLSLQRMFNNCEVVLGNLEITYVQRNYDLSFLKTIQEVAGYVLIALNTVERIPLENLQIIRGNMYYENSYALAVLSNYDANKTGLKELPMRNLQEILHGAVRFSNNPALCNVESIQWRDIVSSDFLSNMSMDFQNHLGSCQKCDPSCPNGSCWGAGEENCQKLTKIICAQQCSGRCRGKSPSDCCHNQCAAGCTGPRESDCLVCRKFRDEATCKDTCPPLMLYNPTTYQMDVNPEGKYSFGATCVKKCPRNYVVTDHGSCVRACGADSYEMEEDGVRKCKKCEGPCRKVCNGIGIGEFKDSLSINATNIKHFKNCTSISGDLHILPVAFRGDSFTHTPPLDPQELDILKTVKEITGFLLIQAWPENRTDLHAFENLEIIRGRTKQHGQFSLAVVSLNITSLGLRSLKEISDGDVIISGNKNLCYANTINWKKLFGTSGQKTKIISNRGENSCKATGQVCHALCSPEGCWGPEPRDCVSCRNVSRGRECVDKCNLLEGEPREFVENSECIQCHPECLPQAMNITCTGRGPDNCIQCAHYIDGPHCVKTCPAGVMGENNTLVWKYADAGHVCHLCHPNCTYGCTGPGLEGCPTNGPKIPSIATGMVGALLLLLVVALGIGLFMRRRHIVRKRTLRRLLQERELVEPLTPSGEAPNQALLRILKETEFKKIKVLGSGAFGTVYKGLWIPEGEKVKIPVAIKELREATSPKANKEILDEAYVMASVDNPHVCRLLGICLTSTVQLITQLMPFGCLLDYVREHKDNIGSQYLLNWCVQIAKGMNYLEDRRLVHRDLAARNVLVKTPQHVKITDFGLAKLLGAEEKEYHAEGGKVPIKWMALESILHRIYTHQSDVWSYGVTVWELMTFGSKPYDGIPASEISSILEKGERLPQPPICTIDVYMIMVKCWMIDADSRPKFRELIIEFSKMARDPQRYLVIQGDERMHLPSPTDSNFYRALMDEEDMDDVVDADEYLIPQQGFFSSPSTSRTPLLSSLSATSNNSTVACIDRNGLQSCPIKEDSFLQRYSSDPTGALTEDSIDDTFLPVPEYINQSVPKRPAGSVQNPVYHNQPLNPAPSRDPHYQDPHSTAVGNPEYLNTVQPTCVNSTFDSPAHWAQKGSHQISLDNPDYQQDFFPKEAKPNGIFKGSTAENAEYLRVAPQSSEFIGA
SMILES,IC50 (EGFR wild type; [3]) [nM],IC50 (EGFR L858R; [4]) [nM],IC50 (EGFR L858R/T790M; [5]) [nM],IC50 (EGFR Exon19Del; [6]) [nM],IC50 (EGFR Exon19Del/T790M; [7]) [nM],IC50 (EGFR[T790M/C797S/L858R]; [8]) [nM],"IC50 [1, 9] [nM]",IC50 (EGFR (d746-750 C797S); [10]) [nM],IC50 (EGFR (C797S L858R); [11]) [nM],"GI50 [2, 12] [nM]","GI50 [2, 13] [nM]","GI50 [2, 14] [nM]","GI50 [2, 15] [nM]","GI50 [2, 16] [nM]","GI50 [2, 17] [nM]","GI50 [2, 18] [nM]",GI50 (PC-9; [19]) [nM],further results
"CN(C)CCC1CN(c2ccc3nc4n(c3c2)C23CCC(CN(CCOc5c(cnn5C)-c5cc(cn(C)c5=O)C(=O)N4)C2)C3)C1 (single isomer, unassigned) [Example A95B]",55,7,3.7,1.7,3.1,3.3,2.7,1.5,4.7,,,,,,,,,"GI50 ([2]; Mus musculus, BaF3, 72 h, BaF3 cells, EGFR DEL19-C797S, CellTiter-Glo, read-out: DEL19-C797S/BaF3 GI50): 95 nM; GI50 ([2]; Mus musculus, BaF3, 72 h, BaF3 cells, EGFR DEL19-T790-C797S, CellTiter-Glo, read-out: DEL19-T790-C797S/BaF3 GI50): 228 nM; GI50 ([2]; Mus musculus, BaF3, 72 h, BaF3 cells, EGFR L858R, CellTiter-Glo, read-out: L858R/BaF3 GI50): 357 nM; GI50 ([2]; Mus musculus, BaF3, 72 h, BaF3 cells, EGFR L858R-C797S, CellTiter-Glo, read-out: L858R-C797S/BaF3 GI50): 436 nM; GI50 ([2]; Mus musculus, BaF3, 72 h, BaF3 cells, EGFR L858R-T790-C797S, CellTiter-Glo, read-out: L858R-T790-C797S/BaF3 GI50): 574 nM; GI50 ([2]; Mus musculus, BaF3, 72 h, BaF3 cells, EGFR L858R-T790M, CellTiter-Glo, read-out: L858R-T790M/BaF3 GI50): 1080 nM; GI50 ([2]; Mus musculus, BaF3, 72 h, EGFR DEL19-T790M, CellTiter-Glo, read-out: DEL19-T790M GI50): 177 nM; GI50 (PC-9; Homo sapiens, PC-9, 72 h, CellTiter-Glo, read-out: PC9 GI50): 2460 nM"
"CN1C2CC1CN(c1ccc3nc4n(c3c1)C13CCC(CN(CCOc5c(cnn5C)-c5cc(cn(C)c5=O)C(=O)N4)C1)C3)C2 (single isomer, unassigned) [Example A98A]",> 5000,1270,> 5000,235,3410,> 5000,2080,391,3370,95,340,47,173,49,343,171,297,
"CN1CC2CC1CN2c1ccc2nc3n(c2c1)C12CCC(CN(CCOc4c(cnn4C)-c4cc(cn(C)c4=O)C(=O)N3)C1)C2 (single isomer, unassigned) [Example A105A]",> 5000,2600,> 5000,381,> 5000,> 5000,4190,330,2770,100,341,617,263,652,246,363,683,
"Cc1cc2cc(n1)-c1cnn(C)c1OCCN1CCOCC(C1)n1c(nc3ccccc31)NC2=O (single isomer, unassigned) [Example B7A, 15,21-dimethyl-23,29-dioxa-2,9,11,16,20,21,26-heptaazahexacyclo[24.4.1.1^{13,17}.0^{2,10}.0^{3,8}.0^{18,22}]dotriaconta-3,5,7,9,13(32),14,16,18(22),19-nonaen-12-one]",,,,,,,,,,,,,,,,,,"IC50 (EGFR wild type; EGFR wild type, 1 h at room temperature, read-out: IC50 @WT): > 5000 nM; IC50 (EGFR L858R; 1 h at room temperature, read-out: IC50 @L858R): > 5000 nM; IC50 (EGFR L858R/T790M; EGFR L858R/T790M, 1 h at room temperature, read-out: IC50 @L858R-T790M): 2630 nM; IC50 (EGFR Exon19Del; EGFR Exon19Del, 1 mM ATP, 1 h at room temperature): 1210 nM; IC50 (EGFR Exon19Del/T790M; EGFR Exon19Del/T790M, 1 h at room temperature, read-out: IC50 @Del19-T790M): 104 nM; IC50 (EGFR[T790M/C797S/L858R]; EGFR[T790M/C797S/L858R], 1 h at room temperature, read-out: IC50 @T790M- C797S - L858R): 1650 nM; IC50 ([1]; EGFR[T790M/C797S/d746-750], 1 mM ATP, 1 h at room temperature, read-out: IC50 @T790M - C797S - Del19): 62 nM; IC50 (EGFR (d746-750 C797S); EGFR (d746-750 C797S), 1 h at room temperature, read-out: IC50 @Del19-C797S): 611 nM; IC50 (EGFR (C797S L858R); EGFR (C797S L858R), 1 h at room temperature, read-out: IC50 @L858-C797S): > 5000 nM; GI50 ([2]; Mus musculus, BaF3, 72 h, BaF3 cells, EGFR DEL19 - C797S, read-out: GI50 DEL19 - C797S/BaF3): 228 nM; GI50 ([2]; Mus musculus, BaF3, 72 h, BaF3 cells, EGFR DEL19 - T790-C797S, read-out: GI50 DEL19 - T790-C797S/BaF3): 186 nM; GI50 ([2]; Mus musculus, BaF3, 72 h, BaF3 cells, EGFR L858R - C797S, read-out: GI50 L858R - C797S/BaF3): 189 nM; GI50 ([2]; Mus musculus, BaF3, 72 h, BaF3 cells, EGFR L858R - T790-C797S, read-out: GI50 L858R - T790-C797S/BaF3): 295 nM; GI50 ([2]; Mus musculus, BaF3, 72 h, BaF3 cells, EGFR L858R - T790M, read-out: GI50 L858R - T790M/BaF3): 383 nM; GI50 ([2]; Mus musculus, BaF3, 72 h, BaF3 cells, EGFR L858R, read-out: GI50 L858R/BaF3): 934 nM; GI50 ([2]; Mus musculus, BaF3, 72 h, EGFR DEL19 - T790M, read-out: GI50 DEL19 - T790M): 265 nM; GI50 (PC-9; Homo sapiens, PC-9, 72 h, read-out: GI50 PC9): 427 nM"
